Laboratory results: patent publication US6887669B1, “Reagents for assays for ligands” (Dade Behring Marburg GmbH, priority 1996, dated 2005)
One block for each compound: values may come before it.

How the values were obtained:
[1] = Background absorbance at 340 nm of Reagent A containing releasing agent; assay type: physicochemical; settings: for C A 340 nm (background absorbance): 3 μL negative NHP + 72 μL water + 155 μL Reagent A, 0.6 cm path; for C A 340 nm (background absorbance) / D ΔA = agent - control ΔA 340 nm: ANS 0.25 mM, anisic acids 12.5 mM in Rgt A
Procedure: In both runs, the background absorbance at 340 nm for each Reagent A was measured in duplicate on a 230-μL combination of 3 μL negative NHP, 72 μL of deionized water, and 155 μL Reagent A. The cell path length was 0.6 cm. […] These changes are noted as follows. Reagent B and water were added in cycle 4. The analysis was finished at the end of cycle 15. Rates were determined using the 5 absorbance readings of cycles 11 through 15.

[2] = Discoloration of Reagent A on exposure to light; assay type: physicochemical; settings: agent formulated in Reagent A
[3] = system: MPA bound to plasma proteins in normal human plasma (NHP); assay: MPA enzyme immunoassay rates with releasing agents in Reagent A (NHP versus buffer), Example 2; settings: for I (H-G) Buff Rate Span: 0 to 10 μg/mL MPA in buffer; for J (H-F) Buff-NHP Rate Diff.: 10 μg/mL MPA, closer to zero = better releasing effect; for G Buff with 0 μg/mL MPA Rate / H Buff with 10 μg/mL MPA Rate: 50 mM MES buffer pH 7.1; for G Buff with 0 μg/mL MPA Rate / H Buff with 10 μg/mL MPA Rate / E NHP with 0 μg/mL MPA Rate / F NHP with 10 μg/mL MPA Rate: ANS 0.25 mM, anisic acids 12.5 mM in Rgt A
Procedure: Rates were determined on a Cobas Mira Plus® instrument (Roche Diagnostics Systems, Inc., Branchburg, N.J.). The temperature was kept at 37° C. for the entire assay. Timings were carried out in cycles with each cycle being 25 seconds. In cycle 1, the first cycle, 75 μL of water and 3 μL of a sample were mixed with 155 μL of A diluent in a 0.6 cm path length cuvette. This mixture was incubated until the addition of Reagent B in cycle 7. […] In cycle 7, seventy-five μL of Reagent B followed by 20 μL of water was then added to the cuvette, mixed, and incubated until the end of cycle 25 at which time the assay was finished. During the assay, absorbance readings at 340 nm were made at the end of every cycle. A best linear fit was then made using only the 12 consecutive absorbance readings of cycles 14 through 25 versus time in minutes. The slope of this line was the rate.
In these experiments, the diluent for Reagent A (Rgt A) was made somewhat differently than that in Example 1. However, the composition was the same, except for component 7 (releasing agent, o-anisic acid) and component 10 (concentration of MPA antibody). Five diluents were prepared, four with one of each of the above agents and one control with no agent. First, a 2×solution was made in the manner described in Example 1 but which had only components 1 through 5 and 9 at twice the amounts listed. Next, for three of the diluents, each of the three anisic acid isomers was weighed to achieve a final molarity of 12.5 mM and predissolved in one quarter the final volume of water and a minimum amount of 6 N NaOH (approximately 6 drops per 0.2 grams anisic acid). For the fourth diluent, the agent, ANS, was weighed to give a 0.25 mM final concentration and added to one quarter the final volume of water. The fifth diluent, the control, had no releasing agent. To make each of these five diluents, the appropriate amounts of the 2×solution, the 1×amount of BSA, component 8, and the 1×amount of the Pluronic 25R solution, component 6, were combined. Four of these then received the appropriate agent. All were mixed well. Where necessary, pH adjustments were made as described previously and each preparation was brought to the final volume with deionized water to achieve 1× concentrations of components. Each of these A diluents was then filtered through a 0.2 micron filter. Final pH measurements on each were all between 5.5 to 5.7. For each of these five A diluents, a corresponding Reagent A was made by adding antibody to MPA for a final concentration of 6.5 μg/mL. Reagent B (Rgt B) was prepared as described in Example 1 except that component 20 was omitted and 0.1% BSA (Miles Diagnostics, Kankakee, Ill.) was substituted for BLG.
In a total of two runs the effects of each of the four agents relative to a control of no agent was examined with respect to (1) background absorbance at 340 nm, (2) the rate of a negative MPA sample, (3) the rate span between 0 and 10 μg/mL MPA, and (4) the closeness of rate matching of a 10 μg/mL MPA spike in NHP and in buffer. Both runs included the control Reagent A. The first run evaluated Reagent A with ANS while the second run evaluated Reagent A preparations containing the structural isomers of anisic acid.
MPA was spiked into NHP and buffer (Buff) to achieve a final concentration of 10 μg/mL MPA. Buffer in this example was 50 mM MES (2-[N-morpholino]ethanesulfonic acid, obtained from Sigma Chemical Company) with 0.1% (weight/volume) sodium azide, pH 7.1. As with PBS, this buffer has no protein and thus no protein binding of MPA can occur.
In both runs, the background absorbance at 340 nm for each Reagent A was measured in duplicate on a 230-μL combination of 3 μL negative NHP, 72 μL of deionized water, and 155 μL Reagent A. The cell path length was 0.6 cm. The average A340 (A=absorbance) values are found in Column C of Table 1. Duplicate rates were determined on the spiked and unspiked NHP and buffer similar to Example 1. […]

[4] = cited from earlier work
[5] = system: MPA bound to plasma proteins in normal human plasma; assay: MPA rates in plasma spikes in the presence of co-administered drugs and salicylate, with or without o-anisic acid, Example 4
Procedure: In a separate study, the ability of o-anisic acid to eliminate the effect of salicylate on rates of MPA plasma spikes was compared. Two sets of antibody reagents (Reagent A) were prepared to the basic formulation described in Example 2 above. In one reagent, no releasing agent was added; in another reagent, o-anisic acid was added at 12.5 mM. A common Reagent B was prepared as described in Example 2. Rates for four levels of MPA spikes into plasma and a plasma control were measured with each reagent set. […] Salicylate was present at 659 μg/mL. Rates were determined as described in Example 2 above with the exception of the absorbance read window, which was extended to cycle 20 where the assay was ended. Rates were determined using the 10 consecutive absorbance readings of cycles 11 through 20.

[6] = system: MPA bound to plasma proteins in normal human plasma pool (NHP); assay: EMIT-type enzyme immunoassay for MPA with o-anisic acid in Reagent A: quantitation of MPA spike in NHP versus protein-free PBS; settings: average of two spikes, formulation with o-anisic acid, pooled sd 0.4 μg/mL
Procedure: Reagent A was prepared by first making an anisic acid solution. Anisic acid was dissolved in 1 N NaOH in an amount equal to 25 mL per 1.52 grams of anisic acid. In a separate container was weighed 70% of the final weight of deionized water, to which was added components 1 through 5 inclusive and also component 6 using the prepared solution of Pluronic®25R2 at 10 mL thereof per 1017.9 g (or 1.0 liter) of final solution. This solution was stirred and the anisic acid solution was added. If necessary, the pH of the preparation was adjusted within the range of 5.50 to 5.70 with 6 N NaOH. Next, components 8 and 9 were added and the solution was stirred. If necessary, the pH was adjusted to the above range. […]
For Reagent B deionized water was weighed in an amount equal to 80% of the final weight. […] The conjugate, component 19, was added to achieve a rate of 300±10 mA/min; rate is defined as the change in absorbance at 340 nm per minute of reaction time and is usually expressed as mA/min.
Rates were determined on a Cobas Mira Plus® instrument (Roche Diagnostics Systems, Inc., Branchburg, N.J.). […] During the assay, absorbance readings at 340 nm were made at the end of every cycle. A best linear fit was then made using only the 12 consecutive absorbance readings of cycles 14 through 25 versus time in minutes. […]

[7] = system: MPA enzyme immunoassay; assay: Effect of salicylate as releasing agent on total dose-response curve of MPA enzyme immunoassay; settings: salicylate used as releasing agent
Excerpt: Salicylate is known to increase MPA free fraction in normal human plasma when present at concentrations that may be observed in chronic administration of aspirin (Nowak, infra). […] It is also known that 8-anilino-1-naphthalenesulfonic acid (ANS) functions as a releasing agent in immunoassays (Nerli, et al., Arch Int Physiol Biochim Biophys (1994) 102(1):5-8 and Seth, et al., Clin Chem (1975) 21(10):1406-1413. However, ANS has disadvantages because of its background absorbance at 340 nm and its susceptibility to light degradation. The background absorbance is particularly disadvantageous in enzyme immunoassays. However, ANS has been used in certain enzyme assays under conditions where its disadvantages can be tolerated.

[8] = plasma + methanol control, o-anisic acid 12.5 mM in Reagent A
[9] = plasma with NI drugs + salicylate 659 μg/mL, o-anisic acid 12.5 mM in Reagent A
[10] = plasma with non-interfering co-administered drugs, o-anisic acid 12.5 mM in Reagent A
[11] = salicylate 659 μg/mL + NI drugs in plasma, no releasing agent in Reagent A

Structure (SMILES): O=S(=O)(O)c1cccc2cccc(Nc3ccccc3)c12 [ANS, 8-anilino-1-naphthalene sulfonic acid, reference compound]
C A 340 nm (background absorbance) [1]: 0.779
D ΔA = agent - control ΔA 340 nm [1]: 0.322
discoloration of Reagent A when exposed to light [2]: visibly discolored when exposed to light
I (H-G) Buff Rate Span [3]: 120.2 mA/min
J (H-F) Buff-NHP Rate Diff. [3]: 2.0 mA/min
G Buff with 0 μg/mL MPA Rate [3]: 156.0 mA/min
H Buff with 10 μg/mL MPA Rate [3]: 276.2 mA/min
E NHP with 0 μg/mL MPA Rate [3]: 158.2 mA/min
F NHP with 10 μg/mL MPA Rate [3]: 274.2 mA/min

Structure (SMILES): COc1c(C)c2c(c(O)c1C/C=C(\C)CCC(=O)OCCN1CCOCC1)C(=O)OC2 [MPA-M, morpholinoethyl (E)-6-(1,3-dihydro-4-hydroxy-6-methoxy-7-methyl-3-oxo-5-isobenzofuranyl)-4-methyl-4-hexenoate]
hydrolysis in vivo to MPA [4]: rapidly hydrolyzed in vivo to MPA

Structure (SMILES): COc1ccccc1C(=O)O [o-AA, o-methoxybenzoic acid]
C A 340 nm (background absorbance) [1]: 0.490
D ΔA = agent - control ΔA 340 nm [1]: 0.004
effect of o-anisic acid in the antibody reagent on salicylate interference ([5]; o-anisic acid 12.5 mM in Reagent A): eliminated this potential problem
Rate, MPA + MeOH, 0 μg/mL MPA [5, 8]: 161
Rate, MPA + MeOH, 0.5 μg/mL MPA [5, 8]: 171
Rate, MPA + MeOH, 2.5 μg/mL MPA [5, 8]: 210
Rate, MPA + MeOH, 5 μg/mL MPA [5, 8]: 234
Rate, MPA + MeOH, 15 μg/mL MPA [5, 8]: 264
Rate, MPA + NI + Salicylate, 0 μg/mL MPA [5, 9]: 161
Rate, MPA + NI + Salicylate, 0.5 μg/mL MPA [5, 9]: 171
Rate, MPA + NI + Salicylate, 2.5 μg/mL MPA [5, 9]: 211
Rate, MPA + NI + Salicylate, 5 μg/mL MPA [5, 9]: 234
Rate, MPA + NI + Salicylate, 15 μg/mL MPA [5, 9]: 263
Rate, MPA + NI, 0 μg/mL MPA [5, 10]: 161
Rate, MPA + NI, 0.5 μg/mL MPA [5, 10]: 173
Rate, MPA + NI, 2.5 μg/mL MPA [5, 10]: 211
Rate, MPA + NI, 5 μg/mL MPA [5, 10]: 234
Rate, MPA + NI, 15 μg/mL MPA [5, 10]: 263
I (H-G) Buff Rate Span [3]: 109.3 mA/min
J (H-F) Buff-NHP Rate Diff. [3]: 0.6 mA/min
G Buff with 0 μg/mL MPA Rate [3]: 168.2 mA/min
H Buff with 10 μg/mL MPA Rate [3]: 277.5 mA/min
E NHP with 0 μg/mL MPA Rate [3]: 169.5 mA/min
F NHP with 10 μg/mL MPA Rate [3]: 276.9 mA/min
quantitation of a 10 μg/mL MPA spike in normal human plasma pool (NHP) [6]: 10.2 µg/mL
quantitation of a 10 μg/mL MPA spike in PBS ([6]; protein-free PBS): 10.4 µg/mL

Structure (SMILES): COc1ccc(C(=O)O)cc1 [p-AA]
C A 340 nm (background absorbance) [1]: 0.494
D ΔA = agent - control ΔA 340 nm [1]: 0.008
I (H-G) Buff Rate Span [3]: 96.0 mA/min
J (H-F) Buff-NHP Rate Diff. [3]: −2.1 mA/min
G Buff with 0 μg/mL MPA Rate [3]: 182.3 mA/min
H Buff with 10 μg/mL MPA Rate [3]: 278.3 mA/min
E NHP with 0 μg/mL MPA Rate [3]: 182.7 mA/min
F NHP with 10 μg/mL MPA Rate [3]: 280.4 mA/min

Second part, led by results:

C A 340 nm (background absorbance) [1]: 0.494
D ΔA = agent - control ΔA 340 nm [1]: 0.008
I (H-G) Buff Rate Span [3]: 90.3 mA/min
J (H-F) Buff-NHP Rate Diff. [3]: −0.6 mA/min
G Buff with 0 μg/mL MPA Rate [3]: 189.4 mA/min
H Buff with 10 μg/mL MPA Rate [3]: 279.7 mA/min
E NHP with 0 μg/mL MPA Rate [3]: 188.1 mA/min
F NHP with 10 μg/mL MPA Rate [3]: 280.3 mA/min
Structure (SMILES): COc1cccc(C(=O)O)c1 [m-AA]

decrease in the total dose-response curve in an MPA enzyme immunoassay [7]: 25-50%
absorbance above the control background at 340 nm ([1]; 25 mM in Reagent A): 0.311 absorbance units
Structure (SMILES): O=C(O)c1ccccc1O [salicylic acid, 2-hydroxybenzoic acid, reference compound]
effect of salicylate on rates of MPA in normal human plasma ([5]; absence of releasing agents): increased rates of MPA in normal human plasma
Rate, MPA + NI + Salicylate, 0.5 μg/mL MPA, Antibody Reagent Only [5, 11]: 157
Rate, MPA + NI + Salicylate, 2.5 μg/mL MPA, Antibody Reagent Only [5, 11]: 190
Rate, MPA + NI + Salicylate, 5 μg/mL MPA, Antibody Reagent Only [5, 11]: 210
Rate, MPA + NI + Salicylate, 15 μg/mL MPA, Antibody Reagent Only [5, 11]: 250
